In brackets after ≈: the same amount, converted by molar mass. Like-named read-outs stand apart in the source and are kept apart here.
Legend:
[1] = Solubility testing in vehicle, HPLC (Form III); assay type: physicochemical; details: thermodynamic from solid
Method: In each of the following studies (Examples 6-10), the starting material was Compound 1 (free form, not salt) Form III. The material was a light yellow solid, comprising non-hygroscopic irregular shaped crystal with aggregation. The same analytical methods as described in Example 1 were employed.
Vehicle solutions were prepared as follows:
Solubility was determined at room temperature for 24 and 72 hours and at 45° C. for 4 and 24 hours. About 30/100 mg Compound 1 was added to vehicle (2 mL) and the mixture stirred at room temperature for 24 or 72 hours. The suspensions were filtered or centrifuged, and the filtrate analyzed by HPLC.

[2] = Phase 1 CSF penetrance (CSF/unbound plasma concentration); assay type: in vivo; details: both sexes, human, oral; for Kp at 2 h: CSF / unbound plasma
Method: Safety is assessed throughout the study and PK and PD are characterized using serial blood samples collected up to 48 hours post-dose for Compound 1 plasma concentrations, BTK target occupancy (TO) and target engagement (TE). Cerebrospinal fluid (CSF) samples are collected at 2 hours post-dose to characterize the relationship between Compound 1 plasma concentrations and CNS penetrance (CSF/Unbound plasma concentration). Compound 1 PK parameters (e.g., AUClast, AUCinf, Cmax, Tmax, t1/2) are estimated by standard noncompartmental methods.
Mean Compound 1 CSF:unbound plasma concentration ratios approximated 1 indicating unimpeded access of unbound drug in plasma into the CNS (see, e.g., Table 46, reported as Mean (% coefficient of variation), and FIG. 26 showing CSF to unbound plasma ratio by dose).

[3] = Phase 1 multiple ascending dose plasma pharmacokinetics; assay type: in vivo, human; details: for Tmax / half-life / Cmax / AUC(0-inf): fed; for half-life / Cmax / AUC(0-inf): human, plasma, oral; for half-life: 15 mg; for AUC(0-inf): read-out: AUC0-inf or tau
Text: Part A is a randomized, double-blind, placebo-controlled, single- and -multiple-dose study with staggered dose escalation, administered in the fed state (standard moderate-fat meal). Part A consists of […] (up to 7 single-ascending dose [SAD] cohorts [Cohorts 1-6 & 14], and up to 3 multiple ascending dose [MAD] cohorts [Cohorts 7-9]). Subjects are randomized in a 3:1 ratio per cohort to receive either: Compound 1 Formulation A (N=6 for Cohorts 1-4 and N=9 for Cohorts 5-9 & 14); or placebo (PBO; N=2 for Cohorts 1-4 and N=3 for Cohorts 5-9 & 14).
• Cohorts 7 and 8: Day 1, all subjects begin once-daily multiple dose administration of Formulation A Compound 1 or placebo for 10 days. • Cohort 9: Day −1, all subjects receive placebo. • Day 1, all subjects begin once-daily multiple dose administration of • Compound 1 or placebo for 10 days.
Results: Preliminary pharmacokinetic results from 1 completed MAD cohort are presented, including 12 subjects receiving 15 mg once daily for 10 days randomized in a 3:1 ratio to receive Compound 1 or placebo) in a fed state (moderate-fat meal). […] Preliminary PK parameters are presented in Table 47 (all pharmacokinetic parameters of […] are reported as Mean (% coefficient of variation), except for Tmax and t1/2, which are reported as Median (Min, Max), and in FIG. 27 showing single and multiple dose plasma profiles (Mean±SD).

[4] = target: T1, Bruton's tyrosine kinase (BTK) (Homo sapiens, UniProt Q06187); assay: BTK cell-free enzymatic assay; assay type: biochemical
T1 construct: from tissue; host or cells: whole blood
Text: (S)-1-(1-acryloylpiperidin-3-yl)-2-fluoro-5,6,7,8,9,10-hexahydrocyclohepta[b]indole-4-carboxamide, hereinafter referred to as “Compound 1”, is an orally available, selective, potent inhibitor of Bruton's tyrosine kinase (BTK), thereby providing potential treatment options in BTK-driven diseases. The potency of Compound 1 for BTK inhibition is in the nM range in both cell-free enzymatic and whole blood functional assays.

[5] = oil or lipid, Phosal 50PG, RT, pH 5.8, loading 50 mg/mL
[6] = oil or lipid, Sesame oil, RT, pH 6.5, loading 15 mg/mL
[7] = both sexes, Cohort 7, 15 mg once daily, Day 1, mean
[8] = Cohort 7, 15 mg once daily, Day 10, mean

T1 sequence (Q06187 whole entry, species assumed): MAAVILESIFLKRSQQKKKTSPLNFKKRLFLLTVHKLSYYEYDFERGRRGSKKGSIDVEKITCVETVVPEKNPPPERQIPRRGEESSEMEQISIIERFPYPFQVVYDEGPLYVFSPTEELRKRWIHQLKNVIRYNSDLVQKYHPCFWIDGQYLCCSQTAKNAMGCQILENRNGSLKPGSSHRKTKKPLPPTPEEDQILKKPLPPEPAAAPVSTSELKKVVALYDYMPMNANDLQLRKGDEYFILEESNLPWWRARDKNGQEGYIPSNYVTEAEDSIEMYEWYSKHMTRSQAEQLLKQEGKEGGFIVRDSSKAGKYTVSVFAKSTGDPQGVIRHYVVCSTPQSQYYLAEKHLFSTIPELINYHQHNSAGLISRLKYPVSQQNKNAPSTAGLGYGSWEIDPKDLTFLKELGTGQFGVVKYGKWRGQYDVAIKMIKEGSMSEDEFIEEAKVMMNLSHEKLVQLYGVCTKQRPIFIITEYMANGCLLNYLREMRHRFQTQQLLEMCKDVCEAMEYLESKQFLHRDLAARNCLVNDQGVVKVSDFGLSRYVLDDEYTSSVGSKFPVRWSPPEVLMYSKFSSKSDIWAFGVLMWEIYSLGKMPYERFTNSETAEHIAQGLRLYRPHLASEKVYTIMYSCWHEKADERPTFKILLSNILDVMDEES

C=CC(=O)N1CCC[C@@H](c2c(F)cc(C(N)=O)c3[nH]c4c(c23)CCCCC4)C1 [Compound 1, (S)-1-(1-acryloylpiperidin-3-yl)-2-fluoro-5,6,7,8,9,10-hexahydrocyclohepta[b]indole-4-carboxamide]
solubility at 24 h ([1]; oil or lipid, Olive oil, RT, pH 5.2, loading 15 mg/mL): 0.44 mg/mL (≈ 1.15 mM) | solubility at 72 h ([1]; oil or lipid, Olive oil, RT, pH 5.8, loading 15 mg/mL): 0.91 mg/mL (≈ 2.37 mM) | solubility at 24 h [1, 5]: 15.7 mg/mL (≈ 40.8 mM) | solubility at 72 h [1, 5]: 23.8 mg/mL (≈ 62 mM) | solubility at 24 h [1, 6]: 0.73 mg/mL (≈ 1.9 mM) | solubility at 72 h [1, 6]: 0.76 mg/mL (≈ 1.98 mM) | solubility at 4 h ([1]; oil or lipid, phsal 53 MCT, 45° C., pH 5.3, loading 15 mg/mL): 6.4 mg/mL (≈ 16.7 mM) | solubility at 24 h ([1]; oil or lipid, phsal 53 MCT, 45° C., pH 5.1, loading 15 mg/mL): > 15 mg/mL | solubility at 24 h ([1]; organic solvent or mixture, Cremophor EL, RT, pH 8.5, loading 50 mg/mL): 19.5 mg/mL (≈ 50.9 mM) | solubility at 72 h ([1]; organic solvent or mixture, Cremophor EL, RT, pH 8.3, loading 50 mg/mL): 33 mg/mL (≈ 86.1 mM) | solubility at 4 h ([1]; organic solvent or mixture, Cremophor HS 15, 45° C., pH 7.6, loading 50 mg/mL): > 50 mg/mL | solubility at 24 h ([1]; organic solvent or mixture, Cremophor HS 15, 45° C., pH 7.5, loading 50 mg/mL): > 50 mg/mL | solubility at 24 h ([1]; organic solvent or mixture, Cremophor RH40, 45° C., loading 50 mg/mL): 33 mg/mL (≈ 86.1 mM) | solubility at 24 h ([1]; organic solvent or mixture, EtOH, RT, pH 5.9, loading 50 mg/mL): 19.4 mg/mL (≈ 50.6 mM) | solubility at 72 h ([1]; organic solvent or mixture, EtOH, RT, pH 6.2, loading 50 mg/mL): 27.6 mg/mL (≈ 72 mM) | solubility at 4 h ([1]; organic solvent or mixture, PEG400/TPGS(3/1), 45° C., pH 6.6, loading 50 mg/mL): > 50 mg/mL | solubility at 24 h ([1]; organic solvent or mixture, PEG400/TPGS(3/1), 45° C., pH 6.1, loading 50 mg/mL): > 50 mg/mL | solubility at 24 h ([1]; organic solvent or mixture, PEG400, RT, pH 5.6, loading 50 mg/mL): > 50 mg/mL | solubility at 72 h ([1]; organic solvent or mixture, PEG400, RT, pH 6.7, loading 50 mg/mL): > 50 mg/mL | solubility at 24 h ([1]; organic solvent or mixture, PG, RT, pH 5.1, loading 50 mg/mL): 48.2 mg/mL (≈ 126 mM) | solubility at 72 h ([1]; organic solvent or mixture, PG, RT, pH 5.2, loading 50 mg/mL): > 50 mg/mL | Kp at 2 h ([2]; Cohort 2, 15 mg single dose, 2 hr post-dose, mean, read-out: CSF/Unbound Plasma): 0.95 | Kp at 2 h ([2]; Cohort 3, 45 mg single dose, 2 hr post-dose, mean, read-out: CSF/Unbound Plasma): 0.95 | Kp at 2 h ([2]; healthy subjects, CSF samples at 2 hours post-dose, read-out: Mean CSF:unbound plasma concentration ratio): ~1 | concentration at 2 h ([2]; CSF, Cohort 2, 15 mg single dose, mean, read-out: CSF Conc (2 hr)): 0.9 ng/mL | concentration at 2 h ([2]; CSF, Cohort 3, 45 mg single dose, mean, read-out: CSF Conc (2 hr)): 2.07 ng/mL | concentration at 2 h ([2]; plasma (unbound), Cohort 2, 15 mg single dose, mean, read-out: Unbound Plasma Conc @2 hr): 0.83 ng/mL | concentration at 2 h ([2]; plasma (unbound), Cohort 3, 45 mg single dose, mean, read-out: Unbound Plasma Conc @2 hr): 2.33 ng/mL | concentration at 2 h ([2]; plasma, Cohort 2, 15 mg single dose, mean, read-out: Plasma Conc @2 hr): 63.2 ng/mL | concentration at 2 h ([2]; plasma, Cohort 3, 45 mg single dose, mean, read-out: Plasma Conc @2 hr): 159 ng/mL | accumulation upon once-daily dosing ([3]; 15 mg once daily for 10 days): Minimal to no accumulation | Tmax ([3]; Cohort 7, 15 mg once daily, Day 1, median): 1.5 br | Tmax ([3]; Cohort 7, 15 mg once daily, Day 10, median): 1.5 br | half-life ([3]; both sexes, MAD cohort, 15 mg once daily for 10 days, read-out: terminal half-life (converted)): ~180 min | Cmax [3, 7]: 85.8 ng/mL | AUC(0-inf) [3, 7]: 312 ng·h/mL | half-life ([3]; Cohort 7, 15 mg once daily, Day 1, median, read-out: T1/2 (converted)): 191 min | half-life ([3]; Cohort 7, 15 mg once daily, Day 10, median, read-out: T1/2 (converted)): 202 min | Cmax [3, 8]: 102 ng/mL | AUC(0-inf) [3, 8]: 353 ng·h/mL | potency for BTK inhibition [4]: nM range
